Tested on: 941728-121-R-J1-PDC complex spheroid viability
Assay: Anticancer human tumor 941728-121-R-J1-PDC patient-derived lung adenocarcinoma cell line growth inhibition [RAS]
Settings: for IC50: curve of first compound; for viability, T/C: stronger effect = lower value
How it was run: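 Agents were tested in combination matrices in half-log decrements from a top concentration at or near clinical Cmax (10 microM if undetermined). Targets were multi-cell spheroids of tumour lines plus HUVEC and MSC stromal cells.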
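Also: spheroids exposed to compounds for 7 days before readout.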
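For viability, T/C in this document: 100% = DMSO vehicle control viability.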

## C=CC(=O)N1CCN(c2nc(OCC3CCCN3C)nc3c(F)c(-c4nc(N)cc(C)c4C(F)(F)F)c(Cl)cc23)C(C)C1 (centres undefined) + C#Cc1c(F)ccc2cc(O)cc(-c3ncc4c(N5CC6CCC(C5)N6)nc(OCC56CCCN5CC(F)C6)nc4c3F)c12
Second compound 0.0316 µM
  IC50: < 3.16 nM
Second compound 0.1 µM
  IC50: < 3.16 nM
Second compound 0.316 µM
  IC50: < 3.16 nM
Second compound 1 µM
  IC50: < 3.16 nM
Second compound 3.16 µM
  IC50: < 3.16 nM
Second compound 10 µM
  IC50: < 3.16 nM
Second compound 0.0316 µM, first compound 0.00316 µM
  viability, T/C: 22.3%
Second compound 0.0316 µM, first compound 0.01 µM
  viability, T/C: 20.1%
Second compound 0.0316 µM, first compound 0.0316 µM
  viability, T/C: 18.7%
Second compound 0.0316 µM, first compound 0.1 µM
  viability, T/C: 21%
Second compound 0.0316 µM, first compound 0.316 µM
  viability, T/C: 22.6%
Second compound 0.0316 µM, first compound 1 µM
  viability, T/C: 21.2%
Second compound 0.1 µM, first compound 0.00316 µM
  viability, T/C: 22.9%
Second compound 0.1 µM, first compound 0.01 µM
  viability, T/C: 19.5%
Second compound 0.1 µM, first compound 0.0316 µM
  viability, T/C: 21.8%
Second compound 0.1 µM, first compound 0.1 µM
  viability, T/C: 20.7%
Second compound 0.1 µM, first compound 0.316 µM
  viability, T/C: 19.8%
Second compound 0.1 µM, first compound 1 µM
  viability, T/C: 23.9%
Second compound 0.316 µM, first compound 0.00316 µM
  viability, T/C: 22.1%
Second compound 0.316 µM, first compound 0.01 µM
  viability, T/C: 22.2%
Second compound 0.316 µM, first compound 0.0316 µM
  viability, T/C: 21%
Second compound 0.316 µM, first compound 0.1 µM
  viability, T/C: 23.4%
Second compound 0.316 µM, first compound 0.316 µM
  viability, T/C: 20.7%
Second compound 0.316 µM, first compound 1 µM
  viability, T/C: 21.4%
Second compound 1 µM, first compound 0.00316 µM
  viability, T/C: 21.3%
Second compound 1 µM, first compound 0.01 µM
  viability, T/C: 19.5%
Second compound 1 µM, first compound 0.0316 µM
  viability, T/C: 22%
Second compound 1 µM, first compound 0.1 µM
  viability, T/C: 21.5%
Second compound 1 µM, first compound 0.316 µM
  viability, T/C: 22.2%
Second compound 1 µM, first compound 1 µM
  viability, T/C: 22.5%
Second compound 3.16 µM, first compound 0.00316 µM
  viability, T/C: 22.8%
Second compound 3.16 µM, first compound 0.01 µM
  viability, T/C: 20.1%
Second compound 3.16 µM, first compound 0.0316 µM
  viability, T/C: 22%
Second compound 3.16 µM, first compound 0.1 µM
  viability, T/C: 20.3%
Second compound 3.16 µM, first compound 0.316 µM
  viability, T/C: 22%
Second compound 3.16 µM, first compound 1 µM
  viability, T/C: 22.3%
Second compound 10 µM, first compound 0.00316 µM
  viability, T/C: 21.9%
Second compound 10 µM, first compound 0.01 µM
  viability, T/C: 21.1%
Second compound 10 µM, first compound 0.0316 µM
  viability, T/C: 17.5%
Second compound 10 µM, first compound 0.1 µM
  viability, T/C: 17.8%
Second compound 10 µM, first compound 0.316 µM
  viability, T/C: 18.2%
Second compound 10 µM, first compound 1 µM
  viability, T/C: 14.7%

## CC1(C)CCC(Nc2ncc(C(F)(F)F)c(-c3c[nH]c4c(P(C)(C)=O)c(C#N)ccc34)n2)CN1 (centres undefined) + C#Cc1c(F)ccc2cc(O)cc(-c3ncc4c(N5CC6CCC(C5)N6)nc(OCC56CCCN5CC(F)C6)nc4c3F)c12
Second compound 0.0316 µM
  IC50: > 300 nM
Second compound 0.1 µM
  IC50: > 300 nM
Second compound 0.316 µM
  IC50: < 0.949 nM
Second compound 1 µM
  IC50: < 0.949 nM
Second compound 3.16 µM
  IC50: < 0.949 nM
Second compound 10 µM
  IC50: < 0.949 nM
Second compound 0.0316 µM, first compound 0.000949 µM
  viability, T/C: 71.4%
Second compound 0.0316 µM, first compound 0.003 µM
  viability, T/C: 58.2%
Second compound 0.0316 µM, first compound 0.00949 µM
  viability, T/C: 53.7%
Second compound 0.0316 µM, first compound 0.03 µM
  viability, T/C: 48%
Second compound 0.0316 µM, first compound 0.0949 µM
  viability, T/C: 49.9%
Second compound 0.0316 µM, first compound 0.3 µM
  viability, T/C: 54.6%
Second compound 0.1 µM, first compound 0.000949 µM
  viability, T/C: 68.5%
Second compound 0.1 µM, first compound 0.003 µM
  viability, T/C: 53.6%
Second compound 0.1 µM, first compound 0.00949 µM
  viability, T/C: 55.5%
Second compound 0.1 µM, first compound 0.03 µM
  viability, T/C: 52.7%
Second compound 0.1 µM, first compound 0.0949 µM
  viability, T/C: 50.5%
Second compound 0.1 µM, first compound 0.3 µM
  viability, T/C: 49.4%
Second compound 0.316 µM, first compound 0.000949 µM
  viability, T/C: 51.5%
Second compound 0.316 µM, first compound 0.003 µM
  viability, T/C: 46.7%
Second compound 0.316 µM, first compound 0.00949 µM
  viability, T/C: 38.5%
Second compound 0.316 µM, first compound 0.03 µM
  viability, T/C: 45.4%
Second compound 0.316 µM, first compound 0.0949 µM
  viability, T/C: 44.4%
Second compound 0.316 µM, first compound 0.3 µM
  viability, T/C: 49.6%
Second compound 1 µM, first compound 0.000949 µM
  viability, T/C: 33.8%
Second compound 1 µM, first compound 0.003 µM
  viability, T/C: 40.2%
Second compound 1 µM, first compound 0.00949 µM
  viability, T/C: 35.6%
Second compound 1 µM, first compound 0.03 µM
  viability, T/C: 36.3%
Second compound 1 µM, first compound 0.0949 µM
  viability, T/C: 38.6%
Second compound 1 µM, first compound 0.3 µM
  viability, T/C: 38.9%
Second compound 3.16 µM, first compound 0.000949 µM
  viability, T/C: 30.9%
Second compound 3.16 µM, first compound 0.003 µM
  viability, T/C: 30.8%
Second compound 3.16 µM, first compound 0.00949 µM
  viability, T/C: 33.6%
Second compound 3.16 µM, first compound 0.03 µM
  viability, T/C: 35.1%
Second compound 3.16 µM, first compound 0.0949 µM
  viability, T/C: 34.4%
Second compound 3.16 µM, first compound 0.3 µM
  viability, T/C: 34.5%
Second compound 10 µM, first compound 0.000949 µM
  viability, T/C: 23%
Second compound 10 µM, first compound 0.003 µM
  viability, T/C: 30.1%
Second compound 10 µM, first compound 0.00949 µM
  viability, T/C: 24.3%
Second compound 10 µM, first compound 0.03 µM
  viability, T/C: 24.9%
Second compound 10 µM, first compound 0.0949 µM
  viability, T/C: 27.5%
Second compound 10 µM, first compound 0.3 µM
  viability, T/C: 26%

Reference: PubChem BioAssay AID2060896 (Molecular Pharmacology Branch, DTP, NCI, 2025)
